Experimental data from PMC1241435 (Environmental Health Perspectives, 2003).

How the values were obtained:
[1] = molecular target: T1, FMO I (Homo sapiens, UniProt Q01740); experiment: sulfoxide formation by microsomes of cells expressing the recombinant enzyme; format: cell-based
T1 sequence (Q01740 2-532): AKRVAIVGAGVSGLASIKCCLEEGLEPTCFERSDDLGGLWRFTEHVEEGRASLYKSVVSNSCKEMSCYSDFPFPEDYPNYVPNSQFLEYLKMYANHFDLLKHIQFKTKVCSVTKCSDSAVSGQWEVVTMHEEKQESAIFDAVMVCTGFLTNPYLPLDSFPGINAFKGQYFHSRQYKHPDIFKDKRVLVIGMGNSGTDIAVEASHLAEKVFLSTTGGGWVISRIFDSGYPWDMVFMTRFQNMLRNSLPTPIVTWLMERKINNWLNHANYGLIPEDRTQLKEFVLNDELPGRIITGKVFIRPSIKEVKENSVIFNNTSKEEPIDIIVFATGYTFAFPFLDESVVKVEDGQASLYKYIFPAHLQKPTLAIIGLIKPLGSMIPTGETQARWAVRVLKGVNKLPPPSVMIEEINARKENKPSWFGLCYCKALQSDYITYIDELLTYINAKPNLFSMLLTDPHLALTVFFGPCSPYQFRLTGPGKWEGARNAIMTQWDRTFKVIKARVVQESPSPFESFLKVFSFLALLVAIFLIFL

[2] = molecular target: T2, CYP 1A1 (Homo sapiens, UniProt P04798); experiment: as above; format: cell-based
T2 sequence (P04798 1-512): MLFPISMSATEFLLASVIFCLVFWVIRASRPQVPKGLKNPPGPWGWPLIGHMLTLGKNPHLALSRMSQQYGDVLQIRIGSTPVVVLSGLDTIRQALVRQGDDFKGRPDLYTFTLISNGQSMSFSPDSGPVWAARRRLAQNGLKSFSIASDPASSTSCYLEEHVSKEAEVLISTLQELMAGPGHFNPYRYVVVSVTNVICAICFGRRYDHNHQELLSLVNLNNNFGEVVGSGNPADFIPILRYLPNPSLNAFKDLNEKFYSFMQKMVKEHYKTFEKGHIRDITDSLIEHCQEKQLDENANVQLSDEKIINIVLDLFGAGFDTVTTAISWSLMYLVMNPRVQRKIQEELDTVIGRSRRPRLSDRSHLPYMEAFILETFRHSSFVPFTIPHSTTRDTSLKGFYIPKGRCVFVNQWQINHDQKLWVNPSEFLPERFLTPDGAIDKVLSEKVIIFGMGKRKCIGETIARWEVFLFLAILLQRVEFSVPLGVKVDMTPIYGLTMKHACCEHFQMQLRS

COP(=S)(OC)Oc1ccc(SC)c(C)c1 [fenthion, O,O-dimethyl-O-(4-methylmercapto)-3-methylphenylthio-phosphate]
sulfoxide formation by microsomes of cells expressing the recombinant enzyme [1]: 62.4 nmol/min/mg protein | sulfoxide formation by microsomes of cells expressing the recombinant enzyme [2]: 3.6 nmol/min/mg protein
